Data taken from the supplement of paper PMC10883282.

Columns and labels:
Assay in all cases: relative viability vs DMSO control (72 h) (fraction); higher = more viable cells
SW1353 = system: SW1353
Procedure, shortened: (§1)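 Sarcoma cell lines were seeded in 384-well plates at densities set to reach 80–90% confluence. After 24 h, 2.5 µl of serially diluted compound was added (source plates 10 mM to 0.0002 mM), and plates were held 72 h at 37 °C, 5% CO2, with 0.1% DMSO vehicle and a 5 µM positive control. Relative viability came from ATPLite readings as percent growth, averaged over up to triplicate wells. Data were rescaled so full viability equals 1 and none equals 0.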

KHOS-NP = system: KHOS-NP
Procedure, shortened: as §1

A204 = system: A204
Procedure, shortened: as §1

HT1080 = system: HT1080
Procedure, shortened: as §1

SK-ES-1 = system: SK-ES-1
Procedure, shortened: as §1

SW982 = system: SW982
Procedure, shortened: as §1

KHOS-240S = system: KHOS-240S
Procedure, shortened: as §1

RD-ES = system: RD-ES
Procedure, shortened: as §1

SW684 = system: SW684
Procedure, shortened: as §1

SYO-1 = system: SYO-1
Procedure, shortened: as §1

G401 = system: G401
Procedure, shortened: as §1

SW872 = system: SW872
Procedure, shortened: as §1

NC(=O)c1cccc2cn(-c3ccc([C@@H]4CCCNC4)cc3)nc12 [Niraparib]
Details	relative viability
A204, 0.00017 µM	1.07
A204, 0.00051 µM	1.09
A204, 0.00152 µM	1.05
A204, 0.00457 µM	1.07
A204, 0.01372 µM	1.05
A204, 0.04115 µM	1.07
A204, 0.1235 µM	1.064
A204, 0.3704 µM	0.998
A204, 1.111 µM	0.964
A204, 3.333 µM	0.885
A204, 10 µM	0.691
G401, 0.00017 µM	0.962
G401, 0.00051 µM	0.988
G401, 0.00152 µM	1.01
G401, 0.00457 µM	0.9908
G401, 0.01372 µM	0.993
G401, 0.04115 µM	1.03
G401, 0.1235 µM	0.967
G401, 0.3704 µM	0.97
G401, 1.111 µM	0.93
G401, 3.333 µM	0.929
G401, 10 µM	0.852
HT1080, 0.00017 µM	1.06
HT1080, 0.00051 µM	1.05
HT1080, 0.00152 µM	1.01
HT1080, 0.00457 µM	1.04
HT1080, 0.01372 µM	1.01
HT1080, 0.04115 µM	1.01
HT1080, 0.1235 µM	1.041
HT1080, 0.3704 µM	1.02
HT1080, 1.111 µM	1.09
HT1080, 3.333 µM	1.09
HT1080, 10 µM	1.03
KHOS-240S, 0.00017 µM	1.06
KHOS-240S, 0.00051 µM	1.08
KHOS-240S, 0.00152 µM	1.07
KHOS-240S, 0.00457 µM	1.07
KHOS-240S, 0.01372 µM	1.06
KHOS-240S, 0.04115 µM	1.07
KHOS-240S, 0.1235 µM	1.06
KHOS-240S, 0.3704 µM	1.06
KHOS-240S, 1.111 µM	1.03
KHOS-240S, 3.333 µM	1.01
KHOS-240S, 10 µM	0.877
KHOS-NP, 0.00017 µM	1.05
KHOS-NP, 0.00051 µM	1.04
KHOS-NP, 0.00152 µM	1.04
KHOS-NP, 0.00457 µM	1.06
KHOS-NP, 0.01372 µM	1.045
KHOS-NP, 0.04115 µM	1.04
KHOS-NP, 0.1235 µM	1.06
KHOS-NP, 0.3704 µM	1.08
KHOS-NP, 1.111 µM	1.05
KHOS-NP, 3.333 µM	1.079
KHOS-NP, 10 µM	1.04
RD-ES, 0.00017 µM	0.997
RD-ES, 0.00051 µM	1.01
RD-ES, 0.00152 µM	0.9697
RD-ES, 0.00457 µM	0.988
RD-ES, 0.01372 µM	0.966
RD-ES, 0.04115 µM	0.966
RD-ES, 0.1235 µM	0.962
RD-ES, 0.3704 µM	0.899
RD-ES, 1.111 µM	0.783
RD-ES, 3.333 µM	0.504
RD-ES, 10 µM	0.0364
SK-ES-1, 0.00017 µM	1.02
SK-ES-1, 0.00051 µM	1.02
SK-ES-1, 0.00152 µM	1.01
SK-ES-1, 0.00457 µM	1.01
SK-ES-1, 0.01372 µM	1.02
SK-ES-1, 0.04115 µM	0.975
SK-ES-1, 0.1235 µM	0.8976
SK-ES-1, 0.3704 µM	0.822
SK-ES-1, 1.111 µM	0.525
SK-ES-1, 3.333 µM	0.311
SK-ES-1, 10 µM	0.0804
SW684, 0.00017 µM	1.14
SW684, 0.00051 µM	1.15
SW684, 0.00152 µM	1.17
SW684, 0.00457 µM	1.13
SW684, 0.01372 µM	1.09
SW684, 0.04115 µM	1.13
SW684, 0.1235 µM	1.14
SW684, 0.3704 µM	1.1
SW684, 1.111 µM	1.13
SW684, 3.333 µM	1.17
SW684, 10 µM	1.09
SW872, 0.00017 µM	1.02
SW872, 0.00051 µM	1.04
SW872, 0.00152 µM	1.03
SW872, 0.00457 µM	1.04
SW872, 0.01372 µM	0.997
SW872, 0.04115 µM	1.01
SW872, 0.1235 µM	1.05
SW872, 0.3704 µM	1.07
SW872, 1.111 µM	1.06
SW872, 3.333 µM	1.07
SW872, 10 µM	1.02
SW982, 0.00017 µM	1.05
SW982, 0.00051 µM	1.04
SW982, 0.00152 µM	1.05
SW982, 0.00457 µM	1.02
SW982, 0.01372 µM	1.06
SW982, 0.04115 µM	1.07
SW982, 0.1235 µM	1.06
SW982, 0.3704 µM	1.01
SW982, 1.111 µM	0.926
SW982, 3.333 µM	0.791
SW982, 10 µM	0.635
SW1353, 0.00017 µM	0.976
SW1353, 0.00051 µM	0.981
SW1353, 0.00152 µM	0.969
SW1353, 0.00457 µM	0.958
SW1353, 0.01372 µM	0.927
SW1353, 0.04115 µM	0.965
SW1353, 0.1235 µM	0.956
SW1353, 0.3704 µM	0.964
SW1353, 1.111 µM	0.933
SW1353, 3.333 µM	0.942
SW1353, 10 µM	0.904
SYO-1, 0.00017 µM	0.951
SYO-1, 0.00051 µM	0.965
SYO-1, 0.00152 µM	0.95
SYO-1, 0.00457 µM	0.946
SYO-1, 0.01372 µM	0.927
SYO-1, 0.04115 µM	0.861
SYO-1, 0.1235 µM	0.832
SYO-1, 0.3704 µM	0.765
SYO-1, 1.111 µM	0.664
SYO-1, 3.333 µM	0.522
SYO-1, 10 µM	0.29

COc1cc2c(Oc3ccc4[nH]c(C)cc4c3F)ccnc2cc1OCC1(N)CC1 [Anlotinib]
Details	relative viability
A204, 0.00017 µM	1.08
A204, 0.00051 µM	1.08
A204, 0.00152 µM	1.05
A204, 0.00457 µM	1.05
A204, 0.01372 µM	1.05
A204, 0.04115 µM	0.997
A204, 0.1235 µM	0.829
A204, 0.3704 µM	0.475
A204, 1.111 µM	0.36
A204, 3.333 µM	0.18
A204, 10 µM	0.0656
G401, 0.00017 µM	0.964
G401, 0.00051 µM	0.986
G401, 0.00152 µM	1.01
G401, 0.00457 µM	0.988
G401, 0.01372 µM	0.976
G401, 0.04115 µM	0.982
G401, 0.1235 µM	0.955
G401, 0.3704 µM	0.89
G401, 1.111 µM	0.773
G401, 3.333 µM	0.445
G401, 10 µM	0.163
HT1080, 0.00017 µM	1.023
HT1080, 0.00051 µM	1.03
HT1080, 0.00152 µM	1.04
HT1080, 0.00457 µM	1.03
HT1080, 0.01372 µM	1.05
HT1080, 0.04115 µM	1.05
HT1080, 0.1235 µM	1.07
HT1080, 0.3704 µM	1.08
HT1080, 1.111 µM	1.1
HT1080, 3.333 µM	1.02
HT1080, 10 µM	0.0879
KHOS-240S, 0.00017 µM	1.06
KHOS-240S, 0.00051 µM	1.049
KHOS-240S, 0.00152 µM	1.04
KHOS-240S, 0.00457 µM	1.06
KHOS-240S, 0.01372 µM	1.05
KHOS-240S, 0.04115 µM	1.04
KHOS-240S, 0.1235 µM	1.03
KHOS-240S, 0.3704 µM	0.993
KHOS-240S, 1.111 µM	0.892
KHOS-240S, 3.333 µM	0.464
KHOS-240S, 10 µM	0.122
KHOS-NP, 0.00017 µM	1.06
KHOS-NP, 0.00051 µM	1.06
KHOS-NP, 0.00152 µM	1.06
KHOS-NP, 0.00457 µM	1.06
KHOS-NP, 0.01372 µM	1.07
KHOS-NP, 0.04115 µM	1.05
KHOS-NP, 0.1235 µM	1.04
KHOS-NP, 0.3704 µM	1.05
KHOS-NP, 1.111 µM	1.04
KHOS-NP, 3.333 µM	0.735
KHOS-NP, 10 µM	0.264
RD-ES, 0.00017 µM	0.9225
RD-ES, 0.00051 µM	0.948
RD-ES, 0.00152 µM	0.969
RD-ES, 0.00457 µM	0.965
RD-ES, 0.01372 µM	0.98
RD-ES, 0.04115 µM	0.992
RD-ES, 0.1235 µM	0.977
RD-ES, 0.3704 µM	0.9545
RD-ES, 1.111 µM	0.925
RD-ES, 3.333 µM	0.594
RD-ES, 10 µM	0.0858
SK-ES-1, 0.00017 µM	1.05
SK-ES-1, 0.00051 µM	1.053
SK-ES-1, 0.00152 µM	1.04
SK-ES-1, 0.00457 µM	1.03
SK-ES-1, 0.01372 µM	1.07
SK-ES-1, 0.04115 µM	1.09
SK-ES-1, 0.1235 µM	1.09
SK-ES-1, 0.3704 µM	1.07
SK-ES-1, 1.111 µM	0.958
SK-ES-1, 3.333 µM	0.104
SK-ES-1, 10 µM	0.0396
SW684, 0.00017 µM	1.15
SW684, 0.00051 µM	1.09
SW684, 0.00152 µM	1.11
SW684, 0.00457 µM	1.11
SW684, 0.01372 µM	1.12
SW684, 0.04115 µM	1.14
SW684, 0.1235 µM	1.13
SW684, 0.3704 µM	1.11
SW684, 1.111 µM	1.07
SW684, 3.333 µM	0.847
SW684, 10 µM	0.502
SW872, 0.00017 µM	0.962
SW872, 0.00051 µM	1.01
SW872, 0.00152 µM	0.985
SW872, 0.00457 µM	1
SW872, 0.01372 µM	1.02
SW872, 0.04115 µM	0.996
SW872, 0.1235 µM	1.01
SW872, 0.3704 µM	1
SW872, 1.111 µM	0.957
SW872, 3.333 µM	0.676
SW872, 10 µM	0.437
SW982, 0.00017 µM	1.034
SW982, 0.00051 µM	1.04
SW982, 0.00152 µM	1.01
SW982, 0.00457 µM	1.05
SW982, 0.01372 µM	1.06
SW982, 0.04115 µM	1.06
SW982, 0.1235 µM	1.05
SW982, 0.3704 µM	0.997
SW982, 1.111 µM	0.956
SW982, 3.333 µM	0.544
SW982, 10 µM	0.206
SW1353, 0.00017 µM	0.9631
SW1353, 0.00051 µM	0.99
SW1353, 0.00152 µM	0.985
SW1353, 0.00457 µM	0.99
SW1353, 0.01372 µM	0.95
SW1353, 0.04115 µM	0.976
SW1353, 0.1235 µM	0.9632
SW1353, 0.3704 µM	0.937
SW1353, 1.111 µM	0.88
SW1353, 3.333 µM	0.551
SW1353, 10 µM	0.254
SYO-1, 0.00017 µM	0.921
SYO-1, 0.00051 µM	0.923
SYO-1, 0.00152 µM	0.92
SYO-1, 0.00457 µM	0.884
SYO-1, 0.01372 µM	0.856
SYO-1, 0.04115 µM	0.817
SYO-1, 0.1235 µM	0.679
SYO-1, 0.3704 µM	0.529
SYO-1, 1.111 µM	0.46
SYO-1, 3.333 µM	0.328
SYO-1, 10 µM	0.115
